Measurements as given in patent US20260191998A1, “INDOLE PHTHALOCYANINE COMPOUND, PREPARATION METHOD THEREFOR, AND USE THEREOF IN TUMOR DIAGNOSIS IMAGING” (JIANGSU YAHONG MEDITECH CO., LTD., priority 2022, published 2026).
Where a name gives a salt, the structure may show the parent alone.

What was measured:
[1] = Kinetic solubility in phosphate buffered saline (HPLC); type: physicochemical; conditions: phosphate buffered saline (PBS), aqueous buffer, kinetic from dmso stock, 25° C., shaken 2 hours, from 10 mM DMSO stock
Protocol: The compounds were weighed in an appropriate amount and dissolved in DMSO to prepare a 10 mM stock solution. 30 μL of the stock solution was taken and 970 μL of phosphate buffered saline solution (PBS) was added thereto. The solution was shaken at 25° C. on a thermostatic mixer for 2 hours, and centrifuged at 12000 rpm for 10 minutes. The supernatant was taken, and the kinetic solubility of each compound in phosphate buffered saline solution (PBS) was determined by Waters Acquity Arc HPLC.

hERG channels = hERG channels (Homo sapiens, UniProt Q12809); assay: hERG whole-cell patch clamp in HEK 293 cells stably expressing hERG; type: cell-based; conditions: HEK 293 stably expressing hERG, tail current
Protocol: The HEK 293 cell line (K1236) stably expressing hERG was purchased from Invitrogen. Cells were cultured in 85% DMEM, 10% dialyzed FBS, 0.1 mM NEAA, 25 mM HEPES, 100 U/mL penicillin-streptomycin, 5 μg/mL blasticidin and 400 μg/mL geneticin. Cells were split using TrypLE™ about three times a week, and maintained at a confluence of about 40% to about 80%. Before measurement, cells were cultured at a density of 5×10^5 in a 6 cm culture dish and induced with 1 μg/mL doxycycline for 48 hours.
Extracellular solution (mM): 132 NaCl, 4 KCl, […], 0.5 MgCl2, 11.1 glucose, 10 HEPES (pH 7.35 adjusted with NaOH);
Intercellular solution (mM): 140 KCl, 2 MgCl2, 10 EGTA, 10 HEPES, 5 MgATP (pH 7.35 adjusted with KOH).
The test compounds were formulated in DMSO to prepare a stock solution with a final concentration of 10 mM.
Then, the stock solution of each compound was diluted with DMSO in a 1:3 serial dilution to prepare five intermediate solutions with concentrations of 3, 1, 0.33, 0.12, 0.04 mM or 3.33, 1.11, 0.37, 0.12 mM, respectively.
Before testing, the final working solutions were prepared by diluting the intermediate solutions 1000 times with the extracellular solution. The concentration of DMSO in the working solutions was within a range around 0.1%.
The working solutions at five different concentrations of 3, 1, 0.33, 0.12 and 0.04 μM were used to determine the potential inhibition effect of the compounds on hERG channels and to fit concentration-response curves and calculate IC50.
The coverslip was removed from the cell culture dish and placed on a microscope stage.
A 10× objective was used to locate cells to be observed. An electrode tip was located under the microscope using the 10× objective by focusing above the plane of the cells. Once the tip was in focus, the electrode was advanced downward towards the cells under rough control of the manipulator, while the objective was moved so as to keep the tip in focus.
When the electrode was directly over a cell, the objective was switched to a 40× objective and fine control of the manipulator was used to enable to gradually approach the cell surface.
With gentle suction through a side port of an electrode holder, a giga-ohm seal was formed.
Cfast was used to eliminate the capacitive current consistent with the voltage step. Brief and strong suction was applied repeatedly until the membrane patch ruptured and the whole-cell configuration was obtained.
At this point, membrane potential was set to −60 mV in order to ensure that hERG channels were not open. Then, Cslow on the amplifier was used to remove the spikes of capacitive current.
Holding potential was set to −90 mV for 500 ms. Current was recorded at 20 kHz and filtering was carried out at 10 kHz. Leak current was tested at −80 mV for 500 ms.
The hERG current was elicited by depolarizing at +30 mV for 4.8 seconds, and then the voltage was restored to −50 mV for 5.2 seconds to remove the inactivation and observe the deactivating tail current. The maximum of tail current size was used to determine hERG current amplitude.
Current was recorded for 120 seconds to evaluate the current stability. Only stable cells with recording parameters above thresholds were used for drug administrations.
Firstly, vehicle control was applied to the cells to establish the baseline. […] The hERG current in the presence of the test compound was recorded for about 5 minutes to reach a steady state, and then 5 sweeps were captured. For dose-response testing, multiple compounds were applied to the cells cumulatively from low to high concentrations (multiple compounds were detected simultaneously). The positive control, Dofetilide at a concentration of 150 nM, was also applied to each cell post hERG current measurement at the highest concentration of the test compound, which was used as an internal low control for normalization of percentage inhibition. […]

[2] = UV-VIS absorption spectra (optical property test); type: physicochemical; conditions: 10 μM, DMSO solution; for Absorbance × 10^4: at maximum absorption peak
Protocol: The UV-VIS absorption spectra of the compounds (10 μM, DMSO solution) were detected using Shimadzu UV2600 spectrophotometer, and the maximum absorption peak and absorbance of each compound were obtained.

RT112 tumor [3] = assay: Tumor/background ratio in subcutaneous RT112 tumor model mice; type: in vivo; conditions: 2 mpk intraperitoneal, 48 hours after injection
Description: The subcutaneous tumor model mice inoculated with RT112 tumor were selected. Each compound was administrated at a dose of 2 mpk, and intraperitoneally injected.

RT112 tumor [4] = conditions: 2 mg/kg or 0.4 mg/kg intraperitoneal, 48 hours after injection
Protocol: All animal experiments were conducted exactly in accordance with the guidelines for the care and use of animals issued by the regional animal committee. A mouse model of xenograft RT112 tumor was established by subcutaneous injection of RT112 cell suspension (2×10^6 cells/mouse, 0.1 ml PBS) into the upper right limb of 8- to 10-week-old BALB/C female nude mice (20 to 25 g). BABL/c nude mice (15 to 20 g) were purchased from Beijing Vital River Laboratory Animal Technology Co., Ltd. For in vivo near-infrared fluorescence (NIRF) imaging, the RT112 tumor-bearing mice were intraperitoneally injected with different doses of free compounds (2 mg/kg or 0.4 mg/kg), respectively. At 48 hours after injection, near-infrared imaging was performed using an IVIS Lumina spectroscopic imaging system (excitation/emission, 780/845 nm).

[5] = system: human bladder cancer cell line UM-UC-3; assay: In vitro imaging effect test with addition of BSP, UM-UC-3; type: cell-based; conditions: 250 μM BSP, compound 1-20 μM with surfactin 1:5, 30 minutes

Sequence of hERG channels (Q12809 whole entry): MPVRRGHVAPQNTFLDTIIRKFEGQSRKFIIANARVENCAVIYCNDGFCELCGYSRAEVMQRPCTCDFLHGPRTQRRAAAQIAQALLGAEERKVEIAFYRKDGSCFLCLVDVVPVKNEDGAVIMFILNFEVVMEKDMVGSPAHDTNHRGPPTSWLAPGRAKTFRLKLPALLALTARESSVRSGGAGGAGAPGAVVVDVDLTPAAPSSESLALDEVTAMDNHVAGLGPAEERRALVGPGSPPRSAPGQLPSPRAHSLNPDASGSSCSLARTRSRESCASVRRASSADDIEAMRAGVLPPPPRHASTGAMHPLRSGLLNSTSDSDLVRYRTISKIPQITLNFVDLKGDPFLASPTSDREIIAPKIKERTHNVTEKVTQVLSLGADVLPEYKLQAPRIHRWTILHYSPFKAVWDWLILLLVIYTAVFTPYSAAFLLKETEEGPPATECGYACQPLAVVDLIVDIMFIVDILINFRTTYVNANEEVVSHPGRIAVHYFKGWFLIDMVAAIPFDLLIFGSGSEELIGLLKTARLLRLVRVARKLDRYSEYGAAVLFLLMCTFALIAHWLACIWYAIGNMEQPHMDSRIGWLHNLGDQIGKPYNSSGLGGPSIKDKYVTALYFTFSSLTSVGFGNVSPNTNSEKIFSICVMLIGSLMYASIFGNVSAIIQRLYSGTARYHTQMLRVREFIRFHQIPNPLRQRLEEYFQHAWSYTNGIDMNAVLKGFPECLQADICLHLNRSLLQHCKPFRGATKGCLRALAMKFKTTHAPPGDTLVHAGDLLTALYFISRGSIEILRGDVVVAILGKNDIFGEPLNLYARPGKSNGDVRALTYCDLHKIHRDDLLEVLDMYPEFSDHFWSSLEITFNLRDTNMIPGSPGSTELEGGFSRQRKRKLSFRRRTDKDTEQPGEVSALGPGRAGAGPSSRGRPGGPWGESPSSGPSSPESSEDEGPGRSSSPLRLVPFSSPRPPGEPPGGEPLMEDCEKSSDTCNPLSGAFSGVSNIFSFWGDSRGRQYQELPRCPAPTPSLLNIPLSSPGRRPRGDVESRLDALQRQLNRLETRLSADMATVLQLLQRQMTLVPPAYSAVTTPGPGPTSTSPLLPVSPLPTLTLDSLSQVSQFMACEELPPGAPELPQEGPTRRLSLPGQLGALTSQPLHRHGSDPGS

Row | SMILES | solubility kinetic at 2 h [1] | IC50 (hERG channels) | Absorption peak [2] | Absorbance × 10^4 [2] | Tumor/background ratio (RT112 tumor [3]) | Enrichment at the tumor sites (NIR fluorescence) (RT112 tumor [4]) | Uptake by UM-UC-3 with or without BSP [5]
1 | C[N+]1=C(/C=C/C2=C(Cl)C(=C/C=C3/N(CCCCCC(=O)O)c4ccccc4C3(C)C)/CC2)C(C)(C)c2ccccc21 [Example 10, 2-((E)-2-((E)-3-(2-((E)-1-(5-carboxypentyl)-3,3-dimethylindolin-2-ylidene)ethenyl)-2-chlorocyclopent-1-en-1-yl)ethenyl)-1,3,3-trimethyl-3H-indol-1-ium Chloride] | 26 µg/mL | 1.33 µM | 821 nm | 2.08 | 3.3 | specifically enriched at the tumor sites | may be weakened or enhanced by BSP
2 | CC[N+]1=C(/C=C/C2=C(Cl)C(=C/C=C3/N(CCOCC(=O)Oc4ccccc4)c4ccccc4C3(C)C)/CCC2)C(C)(C)c2ccccc21 [Example 8, 2-((E)-2-((E)-2-chloro-3-(2-((E)-3,3-dimethyl-1-(2-(2-oxo-2-phenoxyethoxy)ethyl)indolin-2-ylidene)ethenyl)cyclohex-1-en-1-yl)ethenyl)-1-ethyl-3,3-dimethyl-3H-indol-1-ium Trifluoroacetate] | – | – | 794.5 nm | 1.96 | – | specifically enriched at the tumor sites | may be weakened or enhanced by BSP
